Data taken from ChEMBL document CHEMBL5291721, “A preclinical secondary pharmacology resource illuminates target-adverse drug reaction associations of marketed drugs” (Nat Commun, 2023).

Assays:
B2 bradykinin receptor = target: T1, B2 bradykinin receptor (Homo sapiens, UniProt P30411)
T1 sequence (P30411 whole entry): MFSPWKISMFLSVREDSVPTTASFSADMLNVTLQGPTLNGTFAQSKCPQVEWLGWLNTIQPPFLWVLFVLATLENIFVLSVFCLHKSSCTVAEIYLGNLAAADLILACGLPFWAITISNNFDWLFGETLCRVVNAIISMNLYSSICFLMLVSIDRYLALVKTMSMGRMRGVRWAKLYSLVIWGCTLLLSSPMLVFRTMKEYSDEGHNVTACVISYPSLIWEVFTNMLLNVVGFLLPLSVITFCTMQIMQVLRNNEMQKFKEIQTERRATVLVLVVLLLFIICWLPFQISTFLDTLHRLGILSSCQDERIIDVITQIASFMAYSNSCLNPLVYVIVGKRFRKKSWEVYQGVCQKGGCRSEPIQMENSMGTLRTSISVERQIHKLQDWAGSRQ

[1] = target: 5-hydroxytryptamine receptor 2A (Homo sapiens, UniProt P28223); format: functional, cell-based
Sequence of 5-hydroxytryptamine receptor 2A (P28223 whole entry): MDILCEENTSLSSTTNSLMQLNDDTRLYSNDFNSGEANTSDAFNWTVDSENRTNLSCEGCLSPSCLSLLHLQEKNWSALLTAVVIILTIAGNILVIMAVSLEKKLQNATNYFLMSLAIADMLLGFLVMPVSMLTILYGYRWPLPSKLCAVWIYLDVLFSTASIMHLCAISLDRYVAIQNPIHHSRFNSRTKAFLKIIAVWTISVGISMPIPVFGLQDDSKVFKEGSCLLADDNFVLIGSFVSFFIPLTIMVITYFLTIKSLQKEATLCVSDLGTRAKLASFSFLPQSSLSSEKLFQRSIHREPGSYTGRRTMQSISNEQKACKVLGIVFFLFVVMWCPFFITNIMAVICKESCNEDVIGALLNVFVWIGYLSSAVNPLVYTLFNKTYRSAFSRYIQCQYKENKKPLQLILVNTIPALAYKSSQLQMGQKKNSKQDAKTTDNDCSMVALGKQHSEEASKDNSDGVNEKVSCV

[2] = target: T2, Gastrin/cholecystokinin type B receptor (Homo sapiens, UniProt P32239)
T2 sequence (P32239 whole entry): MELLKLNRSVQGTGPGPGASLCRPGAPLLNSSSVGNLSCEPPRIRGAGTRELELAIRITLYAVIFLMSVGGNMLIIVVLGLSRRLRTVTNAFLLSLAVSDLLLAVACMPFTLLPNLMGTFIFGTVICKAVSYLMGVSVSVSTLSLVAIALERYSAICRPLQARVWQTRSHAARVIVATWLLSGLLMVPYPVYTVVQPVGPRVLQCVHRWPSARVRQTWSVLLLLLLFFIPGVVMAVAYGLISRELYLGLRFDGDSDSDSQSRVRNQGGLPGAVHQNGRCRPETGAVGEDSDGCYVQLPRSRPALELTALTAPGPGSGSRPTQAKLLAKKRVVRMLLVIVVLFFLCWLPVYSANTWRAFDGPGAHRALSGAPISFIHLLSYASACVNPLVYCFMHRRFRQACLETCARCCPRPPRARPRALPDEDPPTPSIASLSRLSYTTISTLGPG

Estrogen receptor = target: T3, Estrogen receptor (Homo sapiens, UniProt P03372)
T3 sequence (P03372 whole entry): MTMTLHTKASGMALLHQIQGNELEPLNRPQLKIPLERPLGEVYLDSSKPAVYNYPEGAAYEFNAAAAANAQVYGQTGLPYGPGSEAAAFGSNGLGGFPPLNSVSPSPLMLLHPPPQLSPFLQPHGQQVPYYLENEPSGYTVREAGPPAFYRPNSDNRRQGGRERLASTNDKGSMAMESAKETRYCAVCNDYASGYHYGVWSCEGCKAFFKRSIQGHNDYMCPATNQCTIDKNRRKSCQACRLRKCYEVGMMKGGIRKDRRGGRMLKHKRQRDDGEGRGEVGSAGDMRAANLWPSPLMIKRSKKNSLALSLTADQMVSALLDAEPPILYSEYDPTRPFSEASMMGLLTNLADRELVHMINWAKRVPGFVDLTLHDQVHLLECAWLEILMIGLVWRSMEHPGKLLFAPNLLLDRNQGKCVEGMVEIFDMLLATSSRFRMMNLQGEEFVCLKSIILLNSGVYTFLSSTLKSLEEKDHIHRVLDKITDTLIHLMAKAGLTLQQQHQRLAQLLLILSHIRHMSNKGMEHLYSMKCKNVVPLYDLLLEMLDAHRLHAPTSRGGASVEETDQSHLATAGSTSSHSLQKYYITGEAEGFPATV

[3] = target: T4, Sodium-dependent serotonin transporter (Homo sapiens, UniProt P31645)
T4 sequence (P31645 whole entry): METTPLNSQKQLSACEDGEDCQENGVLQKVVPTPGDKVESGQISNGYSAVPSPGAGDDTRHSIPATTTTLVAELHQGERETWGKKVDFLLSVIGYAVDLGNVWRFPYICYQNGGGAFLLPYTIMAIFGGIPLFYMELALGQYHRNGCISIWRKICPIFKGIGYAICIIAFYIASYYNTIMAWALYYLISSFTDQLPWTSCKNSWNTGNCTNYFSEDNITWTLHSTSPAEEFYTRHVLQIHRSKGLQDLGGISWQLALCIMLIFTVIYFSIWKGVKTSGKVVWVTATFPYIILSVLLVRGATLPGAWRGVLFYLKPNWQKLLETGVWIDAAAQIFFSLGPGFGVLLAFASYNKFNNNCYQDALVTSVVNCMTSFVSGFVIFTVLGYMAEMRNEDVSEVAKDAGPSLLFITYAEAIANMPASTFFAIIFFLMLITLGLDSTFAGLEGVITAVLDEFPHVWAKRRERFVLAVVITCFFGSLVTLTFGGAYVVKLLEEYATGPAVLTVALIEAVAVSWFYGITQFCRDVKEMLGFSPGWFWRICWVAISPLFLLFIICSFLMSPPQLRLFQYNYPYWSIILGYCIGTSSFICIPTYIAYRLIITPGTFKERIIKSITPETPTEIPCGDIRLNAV

[4] = target: T4, Sodium-dependent serotonin transporter; remark: listed apart in the source
[5] = target: T5, Muscarinic acetylcholine receptor M2 (Homo sapiens, UniProt P08172)
T5 sequence (P08172 whole entry): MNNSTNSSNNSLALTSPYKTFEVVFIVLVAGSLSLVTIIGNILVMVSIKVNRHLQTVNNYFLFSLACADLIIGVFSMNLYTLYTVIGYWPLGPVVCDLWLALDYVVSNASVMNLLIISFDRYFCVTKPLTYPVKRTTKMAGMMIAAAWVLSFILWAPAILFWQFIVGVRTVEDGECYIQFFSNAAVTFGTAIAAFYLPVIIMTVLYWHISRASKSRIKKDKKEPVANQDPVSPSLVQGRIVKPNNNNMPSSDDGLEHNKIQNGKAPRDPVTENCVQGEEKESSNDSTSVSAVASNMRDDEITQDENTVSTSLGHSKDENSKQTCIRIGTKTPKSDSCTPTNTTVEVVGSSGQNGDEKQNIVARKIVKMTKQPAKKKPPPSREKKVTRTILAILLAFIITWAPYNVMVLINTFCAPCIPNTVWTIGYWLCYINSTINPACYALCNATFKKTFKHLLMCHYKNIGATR

[6] = target: 5-hydroxytryptamine receptor 2B (Homo sapiens, UniProt P41595); format: functional, cell-based
Sequence of 5-hydroxytryptamine receptor 2B (P41595 whole entry): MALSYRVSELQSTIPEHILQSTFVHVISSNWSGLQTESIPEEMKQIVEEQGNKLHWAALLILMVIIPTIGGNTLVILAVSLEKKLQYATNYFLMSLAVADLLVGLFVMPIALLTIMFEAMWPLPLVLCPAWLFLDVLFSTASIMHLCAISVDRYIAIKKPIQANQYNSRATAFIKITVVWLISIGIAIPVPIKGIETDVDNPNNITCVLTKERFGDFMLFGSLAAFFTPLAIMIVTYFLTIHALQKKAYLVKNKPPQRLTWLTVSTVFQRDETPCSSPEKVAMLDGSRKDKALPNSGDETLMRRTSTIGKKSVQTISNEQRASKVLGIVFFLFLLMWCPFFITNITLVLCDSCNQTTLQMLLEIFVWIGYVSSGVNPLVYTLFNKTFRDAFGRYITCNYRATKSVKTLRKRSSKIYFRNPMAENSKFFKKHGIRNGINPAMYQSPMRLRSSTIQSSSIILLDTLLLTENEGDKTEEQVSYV

[7] = target: T6, Alpha-1A adrenergic receptor (Homo sapiens, UniProt P35348); format: functional, cell-based
T6 sequence (P35348 whole entry): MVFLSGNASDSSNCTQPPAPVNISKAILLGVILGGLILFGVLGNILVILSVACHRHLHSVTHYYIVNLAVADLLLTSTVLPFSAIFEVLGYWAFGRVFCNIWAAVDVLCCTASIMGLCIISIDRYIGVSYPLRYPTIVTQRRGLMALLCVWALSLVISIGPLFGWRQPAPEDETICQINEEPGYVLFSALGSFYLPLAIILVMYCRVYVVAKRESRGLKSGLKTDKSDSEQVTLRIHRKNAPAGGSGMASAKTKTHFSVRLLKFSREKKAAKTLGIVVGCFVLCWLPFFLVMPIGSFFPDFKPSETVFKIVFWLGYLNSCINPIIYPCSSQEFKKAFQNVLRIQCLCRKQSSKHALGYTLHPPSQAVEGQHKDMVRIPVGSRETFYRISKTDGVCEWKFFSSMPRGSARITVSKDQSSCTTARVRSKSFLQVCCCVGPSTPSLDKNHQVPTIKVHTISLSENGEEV
Further: assay procedure not described here.

AC50 (B2 bradykinin receptor) [µM]	AC50 [1] [µM]	AC50 [2] [µM]	AC50 (Estrogen receptor) [µM]	AC50 [3] [µM]	SMILES	AC50 [4] [µM]	AC50 [5] [µM]	AC50 [6] [µM]	AC50 [7] [µM]
> 30	> 30	> 30	> 30	> 30	COC(=O)N[C@H](C(=O)N1CCC[C@H]1c1nc(-c2ccc(-c3ccc(-c4c[nH]c([C@@H]5CCCN5C(=O)[C@@H](NC(=O)OC)C(C)C)n4)cc3)cc2)c[nH]1)C(C)C	–	–	–	–
–	> 30	–	–	17	CC(=O)c1ccc2c(c1)N(CCCN1CCN(CCO)CC1)c1ccccc1S2 [ACETOPHENAZINE]	–	–	–	–
> 30	> 10	> 30	> 30	> 30	COC(=O)N[C@H](C(=O)N[C@@H](Cc1ccccc1)[C@@H](O)CN(Cc1ccc(-c2ccccn2)cc1)NC(=O)[C@@H](NC(=O)OC)C(C)(C)C)C(C)(C)C [ATAZANAVIR]	–	–	–	–
–	> 30	–	–	3.5	CN1CCCC(n2nc(Cc3ccc(Cl)cc3)c3ccccc3c2=O)CC1 (stereo unspecified) [AZELASTINE]	–	–	–	–
–	–	–	–	–	O=C1c2c(O)c(=O)ccn2N([C@@H]2c3ccccc3SCc3c2ccc(F)c3F)[C@@H]2COCCN12 [BALOXAVIR]	> 30	> 30	> 30	> 30
–	–	–	–	–	C(=N\NC1=NCCN1)/c1c2ccccc2c(/C=N/NC2=NCCN2)c2ccccc12 [BISANTRENE]	2.25	2.74	> 30	> 30
> 30	> 30	> 30	> 30	> 10	CC(C)NCC(O)COc1ccc(COCCOC(C)C)cc1 (stereo unspecified) [BISOPROLOL]	–	–	–	–
> 30	> 30	> 30	> 30	> 30	N[C@@H](C(=O)N[C@@H]1C(=O)N2C(C(=O)O)=C(Cl)CS[C@H]12)c1ccccc1 [CEFACLOR ANHYDROUS]	–	–	–	–
–	–	–	–	–	CCO/N=C(\C(=O)N[C@@H]1C(=O)N2C(C(=O)[O-])=C(Sc3nc(-c4cc[n+](C)cc4)cs3)CS[C@H]12)c1nsc(N)n1 [CEFTAROLINE]	> 30	> 30	> 30	> 30
–	–	–	–	–	C[N+](C)(C)CCCCCCCCCC[N+](C)(C)C [DECAMETHONIUM]	> 30	> 30	> 30	> 30
–	–	–	–	–	O=C1c2ccccc2C(=O)C1C(=O)C(c1ccccc1)c1ccccc1 [DIPHENADIONE]	> 30	> 30	> 30	4.95
–	–	–	–	–	CCOC(=O)c1ccc(O)cc1 [ETHYLPARABEN]	> 30	> 30	> 30	> 30
–	–	–	–	–	O=C1[C@H](CC[C@H](O)c2ccc(F)cc2)[C@@H](c2ccc(O)cc2)N1c1ccc(F)cc1 [EZETIMIBE]	> 30	> 30	> 30	9.94
–	–	–	–	–	O=C(COc1ccc(Cl)cc1)N1CCN(Cc2ccc3c(c2)OCO3)CC1 [FIPEXIDE]	29.2	> 30	> 30	> 30
–	–	–	–	–	CCC(=O)c1c(O)cc(O)cc1O [FLOPROPIONE]	> 30	> 30	> 30	> 30
> 10	> 10	–	–	> 10	C[C@@H]1O[C@@H]1P(=O)(O)O [FOSFOMYCIN]	–	–	–	–
> 30	> 30	> 10	> 30	> 30	COc1ccc2c(c1)C(=O)N(CCc1ccc(S(=O)(=O)NC(=O)NC3CCCCC3)cc1)C(=O)C2(C)C [GLIQUIDONE]	–	–	–	–
> 10	> 10	–	> 10	> 10	CN1C(=O)CC(C)(c2ccccc2)C1=O (stereo unspecified) [METHSUXIMIDE]	–	–	–	–
–	–	–	–	–	CC(=O)Oc1c(C)cc(OCC(O)CNC(C)C)c(C)c1C (stereo unspecified) [METIPRANOLOL]	> 30	> 30	> 30	> 30
> 30	> 30	> 30	> 30	> 30	NC(=O)c1ncn([C@@H]2O[C@H](CO)[C@@H](O)[C@H]2O)c1O [MIZORIBINE]	–	–	–	–
–	–	–	–	–	Cc1cc2c(cc1CC(=O)c1sccc1S(=O)(=O)Nc1onc(C)c1Cl)OCO2 [SITAXENTAN]	> 30	> 30	> 30	–
> 10	> 10	–	–	> 10	CC(C(=O)O)c1ccc(C(=O)c2cccs2)cc1 (stereo unspecified) [SUPROFEN]	–	–	–	–
> 10	> 10	–	–	> 30	Cc1ccc(C(=O)c2cc(O)c(O)c([N+](=O)[O-])c2)cc1 [TOLCAPONE]	–	–	–	–
> 30	> 30	> 30	> 30	> 30	CCCS(=O)(=O)Nc1ccc(F)c(C(=O)c2c[nH]c3ncc(-c4ccc(Cl)cc4)cc23)c1F [VEMURAFENIB]	–	–	–	–
–	> 30	–	–	2.8	OCc1cc([C@@H](O)CNCCCCCCOCCOCc2c(Cl)cccc2Cl)ccc1O [VILANTEROL]	–	–	–	–
> 30	> 30	> 30	> 30	> 30	O=C(CCCCCCC(=O)Nc1ccccc1)NO [VORINOSTAT]	–	–	–	–

SMILES	AC50 (B2 bradykinin receptor) [µM]	AC50 [1] [µM]	AC50 [2] [µM]	AC50 (Estrogen receptor) [µM]	AC50 [3] [µM]	AC50 [4] [µM]	AC50 [5] [µM]	AC50 [6] [µM]	AC50 [7] [µM]
CO/N=C(\C(=O)N[C@@H]1C(=O)N2C(C(=O)[O-])=C(C[N+]3(C)CCCC3)CS[C@H]12)c1csc(N)n1	> 30	> 300	> 30	> 30	> 300	–	–	–	–
COC(=O)[C@@H]1CC2=CC(=O)CC[C@]2(C)[C@@]23O[C@@H]2C[C@@]2(C)[C@@H](CC[C@@]24CCC(=O)O4)[C@H]13 [EPLERENONE]	> 30	> 30	> 30	> 30	> 30	–	–	–	–
CC(C)Cc1ccc(CC(=O)O)cc1 [IBUFENAC]	–	> 30	–	–	> 30	–	–	–	–
NC(=O)c1cnccn1 [PYRAZINAMIDE]	> 30	–	> 30	> 30	–	–	> 30	> 30	> 30
CS(=O)(=O)c1ccc([C@@H](O)[C@@H](CO)NC(=O)C(Cl)Cl)cc1 [THIAMPHENICOL]	> 30	–	> 30	> 30	–	–	> 30	> 30	> 30
